Test results as given in US20160097044A1, “Antimicrobial Enzyme Fusions Reduce Resistance and Kill Intracellular Staphylococcus aureus” (The United States of America, as Represented by the …, priority 2014, published 2016).

Key:
[1] = system: NRS 271; test: Minimum Inhibitory Concentration (MIC) assay; assay type: cell-based, S. aureus
Experimental: (§1) The Minimum Inhibitory Concentrations (MIC) of each protein for multiple S. aureus strains was determined as previously described (Jones et al. 1985. In: Manual of Clinical Microbiology, Eds. Balows et al. American Society of Microbiology, Washington D.C., pp. 972-977) with the following modifications. Enzymes were serially diluted two fold across a 96 well plate, such that after dilution, 50 μl of the enzyme solution in 300 mM NaCl, 50 mM NaH2PO4, 30% glycerol pH 7.5, remained in each well. To each well was added 50 μl of TSB and 100 μl of S. aureus Newman in TSB (diluted to 5×10^6 cells/ml). The plates were incubated 20 h at 37° C. and read with a 96 well plate reader. MIC determination values were reported as the median of ≧4 replicates (Table 1).

[2] = system: USA 400 (NRS 123); test: Minimum Inhibitory Concentration (MIC) assay; assay type: cell-based, S. aureus
Experimental: as §1

[3] = system: USA 500 (NRS 385); test: Minimum Inhibitory Concentration (MIC) assay; assay type: cell-based, S. aureus
Experimental: as §1

[4] = system: Sanger 252 (NRS 71); test: Minimum Inhibitory Concentration (MIC) assay; assay type: cell-based, S. aureus
Experimental: as §1

[5] = system: NRS 193; test: Minimum Inhibitory Concentration (MIC) assay; assay type: cell-based, S. aureus
Experimental: as §1

[6] = system: N315 (NRS 70); test: Minimum Inhibitory Concentration (MIC) assay; assay type: cell-based, S. aureus
Experimental: as §1

[7] = system: NRS 194; test: Minimum Inhibitory Concentration (MIC) assay; assay type: cell-based, S. aureus
Experimental: as §1

[8] = system: NRS 209; test: Minimum Inhibitory Concentration (MIC) assay; assay type: cell-based, S. aureus
Experimental: as §1

[9] = system: USA 200 (NRS 383); test: Minimum Inhibitory Concentration (MIC) assay; assay type: cell-based, S. aureus
Experimental: as §1

[10] = system: S. aureus ALR; test: Minimum Inhibitory Concentration (MIC) assay; assay type: cell-based; settings: S. aureus ALR
Experimental: as §1

[11] = system: S. aureus Newman; test: Minimum Inhibitory Concentration (MIC) assay; assay type: cell-based; settings: for Minimum Inhibitory Conc. (median μg/ml): S. aureus Newman
Experimental: as §1

[12] = system: S. aureus Newbould 305; test: Minimum Inhibitory Concentration (MIC) assay; assay type: cell-based; settings: Mastitis isolate S. aureus Newbould 305
Experimental: as §1

[13] = system: S. simulans MP03; test: Minimum Inhibitory Concentration (MIC) assay; assay type: cell-based, Staphylococcus simulans; settings: Mastitis isolate S. simulans MP03
[14] = system: S. aureus strain ALR; test: Rat nasal colonization model; assay type: in vivo, Wistar rats; settings: equimolar concentrations, intranasally twice a day on days 5, 6, 7
Description: FIGS. 1a-1c depict peptidoglycan hydrolase construct schematics, resistance development and effectiveness in eradicating S. aureus carriage in a rat colonization model. FIG. 1a is a schematic of the peptidoglycan hydrolase constructs. Domains: CHAP endopeptidase (CHAP, red box); N-acetylmuramoyl-L-alanine amidase (AMID, green box); M23 endopeptidase (PEP, blue oval); CBDs (LysK SH3b, gold diamond; lysostaphin SH3b, gold diamond with dot); protein transduction domain (PTD, blue circle); hexahistidine purification tag (His6). Domains are not to scale. Specific peptidoglycan cut sites are illustrated in FIG. 3a. FIG. 1b depicts in vitro antimicrobial resistance development. Engineered triple fusions K-L and L-K suppress antimicrobial resistance development compared to LysK (K), lysostaphin (L), or a combination of equimolar concentrations of both (L+K). Changes in Minimum Inhibitory Concentrations (MIC) are depicted as a fold-change at the tenth round of sublethal exposure compared to the first exposure, with the average fold-change of 4 replicates in red. Error bars=SEM. First exposure MICs: Lysostaphin, 0.77 μg/ml (27 nM); LysK, 47 μg/ml (840 nM); Lysostaphin and LysK (L+K) in combination 0.2 μg/ml (7 nM and 3 nM, respectively); triple fusion K-L, 7 μg/ml (97 nM); triple fusion L-K, 7.8 μg/ml (107 nM). FIG. 1c depicts reduction in colonization in a rat nasal carriage model. Rats were inoculated with S. aureus strain ALR on Day 1. After 5 days, the rats were treated twice daily for 3 days with 20 μl of a 10 mg/ml solution of each enzyme. The rat noses were excised on day 10, homogenized, and quantitative cultures were performed. Each point represents the CFU recovered from an individual rat. Bars indicate the median CFU/nose recovered from treated rats. […] Data were compiled from five independent experiments. Lyso=commercially purchased lysostaphin (AMBI, Tarrytown, N.Y.). Statistical comparisons were made with the Mann-Whitney test. SEQ ID NOs of depicted peptidoglycan hydrolase constructs: Lysostaphin (SEQ ID NO:1); Lysostaphin-PTD1-4, 6-12 (SEQ ID NOs:9, 11, 13, 15, 17, 19, 21, 23, 25, 27, 29, respectively); LysK (SEQ ID NO:3); LysK-PTD1-11 (SEQ ID NOs: 31, 33, 35, 37, 39, 41, 43, 45, 47, 49, 51, respectively); LysK-Lysostaphin Fusion K-L (SEQ ID NO:5); K-L-PTD1-4, 6-11 (SEQ ID NOs:53, 55, 57, 59, 61, 63, 65, 67, 69, 71, respectively); Lysostaphin-LysK Fusion L-K (SEQ ID NO:7).
Reduction in nasal colonization was observed when rats were challenged on day 0 with 10^7 CFU S. aureus strain ALR and then treated twice per day on days 5, 6, and 7 with 10 μl of 2% mupirocin calcium ointment (Bactroban Nasal) or petrolatum/softisan placebo. Noses from rats were homogenized and cultured quantitatively on day 10. Each point represents the CFU recovered from an individual rat, and the data were compiled from two independent experiments. Data were analyzed by the Mann-Whitney test, and horizontal lines represent median values. Mupirocin reduced colonization ˜98% compared to the placebo control.
The rat nasal colonization model is an adaptation of the mouse nasal colonization model that we described previously (Schaffer et al. 2006. Infect. Immun. 74:2145-2153). All animal experiments were conducted in accordance with a protocol approved by the appropriate Institutional Animal Care and Use Committees. Wistar rats (5 to 6 wks of age) were obtained from Charles River Laboratories (Wilmington, Mass.) and given food and water ad libitum. The animals were housed two per cage in a modified barrier facility under viral antibody-free conditions. The rats were given drinking water containing streptomycin sulfate (0.5 g/liter; Sigma) 1 day prior to bacterial inoculation and for the course of the experiment. The drinking water and cages were changed three times per week. […]

[15] = system: S. hyicus MP01; test: Minimum Inhibitory Concentration (MIC) assay; assay type: cell-based, Staphylococcus hyicus; settings: Mastitis isolate S. hyicus MP01
[16] = first exposure of the resistance development experiment, FIG. 1b
[17] = first exposure, molar concentration in brackets

Molecule | Minimum Inhibitory Conc. (median μg/ml) [1] [µg/mL] | Minimum Inhibitory Conc. (median μg/ml) [2] [µg/mL] | Minimum Inhibitory Conc. (median μg/ml) [3] [µg/mL] | Minimum Inhibitory Conc. (median μg/ml) [4] [µg/mL] | Minimum Inhibitory Conc. (median μg/ml) [5] [µg/mL] | Minimum Inhibitory Conc. (median μg/ml) [6] [µg/mL] | Minimum Inhibitory Conc. (median μg/ml) [7] [µg/mL] | Minimum Inhibitory Conc. (median μg/ml) [8] [µg/mL] | Minimum Inhibitory Conc. (median μg/ml) [9] [µg/mL] | Minimum Inhibitory Conc. (median μg/ml) [10] [µg/mL] | Minimum Inhibitory Conc. (median μg/ml) [11] [µg/mL] | First exposure MIC [11, 16] [µg/mL] | First exposure MIC [11, 17] [µM] | Minimum Inhibitory Conc. (median μg/ml) [12] [µg/mL] | Minimum Inhibitory Conc. (median μg/ml) [13] [µg/mL] | reduction of nasal bacterial load (in words) [14] | Minimum Inhibitory Conc. (median μg/ml) [15] [µg/mL]
K-L: both LysK lytic domains fused to the N-terminus of lysostaphin; SEQ ID NO:5, protein SEQ ID NO:6 | 7.0 | 7.0 | 7.0 | 5.5 | 7.0 | 7.0 | 14 | 7.0 | 5.5 | 7.0 | 7.0 | 7 | 0.097 | 11 | 3.5 | unable to significantly reduce the bacterial load | 1.8
L: 247 amino acid mature (secreted) lysostaphin, staphylolytic bacteriocin, C-terminal His6 tag; SEQ ID NO:1 [reference compound] | 0.58 | 1.2 | 1.2 | 0.58 | 1.2 | 0.68 | 1.2 | 0.97 | 1.2 | 0.77 | 0.77 | 0.77 | 0.027 | 12 | 1.5 | – | 0.29
K: 495 amino-acid staphylococcal phage K endolysin LysK, C-terminal His6 tag; SEQ ID NO:3 (protein, C-terminal His6 tag; Phage K) MAKTQAEINKRLDAYAKGTVDSPYRVKKATSYDPSFGVMEAGAIDADGYYHAQCQDLITDYVLWLTDNKVRTWGNAKDQIKQSYGTGFKIHENKPSTVPKKGWIAVFTSGSYEQWGHIGIVYDGGNTSTFTILEQNWNGYANKKPTKRVDNYYGLTHFIEIPVKAGTTVKKETAKKSASKTPAPKKKATLKVSKNHINYTMDKRGKKPEGMVIHNDAGRSSGQQYENSLANAGYARYANGIAHYYGSEGYVWEAIDAKNQIAWHTGDGTGANSGNFRFAGIEVCQSMSASDAQFLKNEQAVFQFTAEKFKEWGLTPNRKTVRLHMEFVPTACPHRSMVLHTGFNPVTQGRPSQAIMNKLKDYFIKQIKNYMDKGTSSSTVVKDGKTSSASTPATRPVTGSWKKNQYGTWYKPENATFVNGNQPIVTRIGSPFLNAPVGGNLPAGATIVYDEVCIQAGHIWIGYNAYNGNRVYCPVRTCQGVPPNQIPGVAWGVFKLEHHHHHH | 44 | 75 | 67 | 29 | 37 | 37 | 69 | 40 | 34 | 34 | 47 | 47 | 0.84 | 34 | 20 | unable to significantly reduce the bacterial load | 8.4
